Test results reported in ChEMBL document CHEMBL1201862, “PubChem BioAssay data set” (2004).
Calls of active or inactive are those of the source.

Experiments:
Cysteine protease ATG4B = Cysteine protease ATG4B (Homo sapiens, UniProt Q9Y4P1); assay type: functional;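 also: Fluorescence-based dose-response confirmation assay measuring inhibition of ATG4B activity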
Phospholipase A2 = Phospholipase A2 (Homo sapiens, UniProt P04054); assay type: functional;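 also: confirmatory dose-response counterscreen on phospholipase A2, testing hits that came from an ultra-high-throughput screen for ATG4B inhibitors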
Streptokinase A = biological target: T1, Streptokinase A (Streptococcus pyogenes serotype M1, UniProt P10520); assay: S. pyogenes streptokinase expression inhibitors, potency, dose response, plasminogen activation absorbance, OD405 (AID 1914); assay type: functional, Streptococcus pyogenes M1 GAS;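 also: secreted streptokinase activity via plasminogen activation per viability signal from cell pellet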
T1 sequence (P10520 whole entry): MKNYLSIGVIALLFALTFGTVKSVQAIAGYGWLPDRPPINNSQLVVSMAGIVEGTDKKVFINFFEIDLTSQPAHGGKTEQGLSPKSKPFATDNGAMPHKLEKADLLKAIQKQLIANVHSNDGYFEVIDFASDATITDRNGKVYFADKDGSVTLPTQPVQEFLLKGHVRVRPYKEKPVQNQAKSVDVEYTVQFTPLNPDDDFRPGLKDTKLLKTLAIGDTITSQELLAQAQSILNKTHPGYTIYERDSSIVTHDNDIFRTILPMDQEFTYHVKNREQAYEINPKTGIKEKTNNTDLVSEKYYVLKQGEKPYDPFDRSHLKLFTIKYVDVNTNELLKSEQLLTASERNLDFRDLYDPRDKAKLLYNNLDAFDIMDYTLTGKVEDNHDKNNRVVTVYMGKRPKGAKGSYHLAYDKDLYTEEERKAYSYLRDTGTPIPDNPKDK

[1] = test system: Streptococcus sp. 'group A'; assay: growth inhibition of control SK(-) GAS strain, dose response, counter-screen for streptokinase expression inhibitor project, luminescence, kanamycin, BacTiterGlo, confirmation (AID 1900); assay type: functional, organism-based
Streptococcus = assay: Group A Streptococcus viability loss, dose response, counter-screen for streptokinase expression inhibitor project, luminescence, BacTiterGlo (AID 1915); assay type: functional, organism-based;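 also: potency for reduction of bacterial viability or growth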
Candida albicans [2] = assay: reversal of fluconazole resistance in C. albicans, dose response, CaCi-2 strain, Alamar Blue, dry powder, set 3 (AID 488907); assay type: functional, organism-based
Candida albicans [3] = assay: growth inhibition of resistant C. albicans, dose response, CaCi-8 strain, fluconazole, dry powder, set 4 (AID 488950); assay type: functional, organism-based
Candida albicans [4] = assay: fluconazole resistance reversal in C. albicans, dose response, CaCi-2 strain, Alamar Blue, dry powder, set 4 (AID 488943); assay type: functional, organism-based
[5] = biological target: Botulinum neurotoxin type A (Clostridium botulinum (strain Hall / ATCC 3502 / NCTC 13319 / Type A), UniProt P0DPI1); assay: High-throughput multiplex microsphere dose response for inhibitors of toxin protease, specifically Botulinum neurotoxin light chain A protease, compounds from Cherry Pick 01.; assay type: functional; settings: read-out: EC50_MICROM
Sequence of Botulinum neurotoxin type A (P0DPI1 2-448 limits assumed): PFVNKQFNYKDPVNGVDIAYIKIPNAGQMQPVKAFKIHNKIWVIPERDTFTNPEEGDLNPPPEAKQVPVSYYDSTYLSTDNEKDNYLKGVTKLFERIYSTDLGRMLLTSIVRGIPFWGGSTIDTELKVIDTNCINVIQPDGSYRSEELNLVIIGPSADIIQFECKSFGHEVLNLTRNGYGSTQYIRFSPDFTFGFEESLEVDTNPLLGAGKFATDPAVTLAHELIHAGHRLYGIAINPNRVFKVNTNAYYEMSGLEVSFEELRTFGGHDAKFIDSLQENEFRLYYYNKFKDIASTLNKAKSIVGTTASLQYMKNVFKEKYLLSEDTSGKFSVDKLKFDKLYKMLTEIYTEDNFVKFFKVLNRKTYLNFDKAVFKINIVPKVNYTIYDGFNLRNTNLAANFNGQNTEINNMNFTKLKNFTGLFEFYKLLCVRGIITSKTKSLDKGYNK

Sequence of Cysteine protease ATG4B (Q9Y4P1 whole entry): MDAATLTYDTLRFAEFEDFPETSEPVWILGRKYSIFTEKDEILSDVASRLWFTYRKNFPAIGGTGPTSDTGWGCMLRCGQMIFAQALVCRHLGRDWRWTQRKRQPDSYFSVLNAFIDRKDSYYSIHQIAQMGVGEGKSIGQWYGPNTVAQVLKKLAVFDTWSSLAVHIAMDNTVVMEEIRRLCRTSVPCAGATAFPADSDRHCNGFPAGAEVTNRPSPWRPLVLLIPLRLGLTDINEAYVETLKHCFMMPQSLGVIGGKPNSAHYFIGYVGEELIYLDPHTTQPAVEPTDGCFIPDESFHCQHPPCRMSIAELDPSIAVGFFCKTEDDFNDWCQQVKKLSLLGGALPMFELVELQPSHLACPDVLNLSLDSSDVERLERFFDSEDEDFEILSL
Sequence of Phospholipase A2 (P04054 whole entry): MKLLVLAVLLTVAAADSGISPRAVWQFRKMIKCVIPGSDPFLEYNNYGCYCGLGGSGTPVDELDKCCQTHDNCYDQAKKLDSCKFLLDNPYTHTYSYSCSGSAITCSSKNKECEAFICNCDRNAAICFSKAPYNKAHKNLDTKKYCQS

CC(C)c1ccccc1OCC(=O)NC1CCCc2ccccc21 (centres undefined)
IC50 (Cysteine protease ATG4B): 12.2 µM (active)
IC50 (Phospholipase A2): 9.38 µM (active)
EC50 (Streptokinase A): 18.5 µM (active)
EC50 [1]: 16.3 µM (active)
EC50 (Streptococcus): > 150 µM (not active)

O=C(c1ccc(Cl)cc1)N1CCN(c2nc3ccccc3o2)CC1
AC50 (Candida albicans [2]): 0.465 µM (active)
AC50 (Candida albicans [3]): 0.176 µM (active)
AC50 (Candida albicans [4]): 14.9 µM (active)

CSc1nnc2c(n1)c(C)nn2-c1cccc(C)c1
EC50 [5]: 6.4 µM (active)
